The results in this text go back to the NIST ThermoML archive (doi:10.1021/acs.jced.6b00828).

The data set is described as follows: wn = mass fraction of the nth substance listed. To be noted: 323.15 K, 101.3 kPa, Liquid, Vibrating tube method.

Each structure is given as a SMILES string. ± gives the expanded uncertainty stated by the source.

As a reminder, the mass density is the mass of a sample divided by its volume. For the molecule `O=[PH2][O-].[Na+]` [sodium phosphinate] + O, under “w1 = 0.5786”, the mass density is given as 1438.8 ± 1.1 kg/m3.

Regarding `[Cl-].[Cl-].[Mg+2]` [magnesium chloride] + O, under “w1 = 0.3732”, the mass density was found to be 1343.2 ± 0.9 kg/m3.

Regarding `O=[PH2][O-].O=[PH2][O-].[Mg+2]` [magnesium hypophosphite] + O, under “w1 = 0.2243”, the mass density worked out at 1167.5 ± 0.4 kg/m3.
